Patent publication US20260176279A1, “DUAL RAF AND TUBULIN INHIBITORS AND METHODS OF USE THEREOF” (Deciphera Pharmaceuticals, LLC, priority 2023, published 2026)
Where two headings read alike, the source gives them in different places.

Assays:
[1] = biological target: T1, B-Raf kinase (Homo sapiens, UniProt P15056); test: Biochemical Assay for B-Raf (coupled pyruvate kinase/lactate dehydrogenase assay)
T1 construct: GST (N); purchased Sigma

[2] = biological target: T2, C-Raf kinase (Homo sapiens, UniProt P04049, Y340D/Y341D); test: Biochemical Assay for C-Raf (coupled pyruvate kinase/lactate dehydrogenase assay)
T2 construct: C-Raf residues 306-end; Y340D, Y341D with N-; GST (N); purchased Eurofins
T2 sequence (P04049 307-648 Y340D/Y341D): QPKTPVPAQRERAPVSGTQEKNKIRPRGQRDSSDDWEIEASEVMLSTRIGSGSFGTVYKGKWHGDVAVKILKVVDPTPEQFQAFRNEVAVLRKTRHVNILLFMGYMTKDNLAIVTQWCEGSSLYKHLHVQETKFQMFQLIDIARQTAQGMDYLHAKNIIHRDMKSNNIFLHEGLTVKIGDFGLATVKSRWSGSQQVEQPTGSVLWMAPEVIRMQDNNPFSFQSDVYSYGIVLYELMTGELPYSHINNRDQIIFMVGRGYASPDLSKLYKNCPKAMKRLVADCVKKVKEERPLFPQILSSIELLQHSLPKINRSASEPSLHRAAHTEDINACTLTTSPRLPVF

[3] = tested on: MiaPaca-2 cells; test: MiaPaca-2 Cell Proliferation Assay; type: cell-based; conditions: Homo sapiens, MIA PaCa-2
Description: MiaPaca-2 cells (catalog #CRL-1420) are obtained from the American Type Culture Collect (ATTC, Manassas, VA). Briefly, cells were grown in DMEM supplemented with 10% characterized fetal bovine serum (Invitrogen, Carlsbad, CA), 2.5% New Zealand sourced horse serum and 1% Penicillin/Streptomycin/L-Glutamine at 37° C., 5% CO2, and 95% humidity. Cells are expanded until reaching 70-95% confluency at which point they are sub-cultured or harvested for assay use. For assays completed in 96-well plates, a serial dilution of test compound is dispensed into a 96-well black clear bottom plate in triplicate. Three thousand cells are added per well in 200 μL complete growth medium in the 96-well plate. Plates are incubated for 67 to 72 h at 37° C., 5% CO2, and 95% humidity. At the end of the incubation, 40 μL of a […] solution of resazurin (Sigma, St. Louis, MO) in PBS is added to each well of the plate and plates are incubated for an additional 5 to 6 hours at 37° C., 5% CO2, and 95% humidity. For 384-well assays, a threefold, 8-point serial dilution of compound was spotted column wise into a 384 well black, clear bottom, tissue culture treated plate using the Beckman Coulter Echo 650. Likewise, a threefold, 8-point serial dilution of cobimetinib was spotted row wise into the 384 well black, clear bottom plate containing compound. DMSO concentration was constant across all wells at 0.4%. Seven hundred fifty cells are added per well in 50 μL complete growth medium in each 384-well plate. Plates are incubated for 67 to 72 h at 37° C., 5% CO2, and 95% humidity. At the end of the incubation, 10 μL of a 440 μM solution of resazurin (Sigma, St. Louis, MO) in PBS is added to each well of the plate and plates are incubated for an additional 4 to 6 h at 37° C., 5% CO2, and 95% humidity. Plates are read on a Synergy2 or equivalent reader (Biotek, Winooski VT) using an excitation of 540 nm and an emission of 600 nm. Data is analyzed using Prism software (Graphpad, San Diego, CA) to calculate IC50 values.

[4] = tested on: HCT-116 cells; test: HCT-116 Cell Proliferation Assay; type: cell-based; conditions: Homo sapiens
Description: HCT-116 cells (catalog #CCL-247) are obtained from the American Type Culture Collect (ATCC, Manassas, VA). Briefly, cells are grown in McCoy's 5A supplemented with 10% characterized fetal bovine serum (Invitrogen, Carlsbad, CA) and 1% Penicillin/Streptomycin/L-Glutamine at 37° C., 5% CO2, and 95% humidity. Cells are expanded until reaching 70-95% confluency at which point they are sub-cultured or harvested for assay use. A serial dilution of test compound is dispensed into a 384-well black clear bottom plate in triplicate. 375 cells are added per well in 50 μL complete growth medium in the 384-well plate. Plates are incubated for 67 to 72 h at 37° C., 5% CO2, and 95% humidity. At the end of the incubation, 40 μL of a […] solution of resazurin (Sigma, St. Louis, MO) in PBS is added to each well of the plate and plates are incubated for an additional 4 to 5 hours at 37° C., 5% CO2, and 95% humidity. Plates are read on a Synergy2 or equivalent reader (Biotek, Winooski, VT) using an excitation of 540 nm and an emission of 600 nm. Data is analyzed using Prism software (Graphpad, San Diego, CA) to calculate IC50 values.

[5] = Table 1, inhibition of biochemical activity, read-out: BRAF
[6] = Table 1, inhibition of biochemical activity, read-out: CRAF
[7] = Table 2, inhibition of cell proliferation, read-out: MiaPaca-2
[8] = Table 2, inhibition of cell proliferation, read-out: HCT-116

T1 sequence (P15056 416-766): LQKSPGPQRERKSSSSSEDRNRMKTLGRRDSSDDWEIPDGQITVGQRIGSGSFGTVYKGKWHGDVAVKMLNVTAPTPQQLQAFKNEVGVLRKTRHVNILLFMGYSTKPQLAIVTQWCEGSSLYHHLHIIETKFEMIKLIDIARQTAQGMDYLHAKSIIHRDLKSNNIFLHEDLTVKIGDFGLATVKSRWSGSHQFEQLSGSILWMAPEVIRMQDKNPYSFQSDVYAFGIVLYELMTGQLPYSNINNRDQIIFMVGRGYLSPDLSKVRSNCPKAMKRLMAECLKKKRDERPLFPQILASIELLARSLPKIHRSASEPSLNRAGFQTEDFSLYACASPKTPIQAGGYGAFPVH

Structure (SMILES)	IC50 [1, 5] [nM]	IC50 [2, 6] [nM]	IC50 [3, 7] [nM]	IC50 [4, 8] [nM]	IC50 ([1]; Table 3, read-out: BRAF IC50) [nM]	IC50 ([2]; Table 3, read-out: CRAF IC50) [nM]	IC50 ([3]; Table 3, read-out: MiaPaca-2 IC50) [nM]	IC50 ([4]; HCT-116, Table 3, read-out: HCT-116 IC50) [nM]
COCC(=O)Nc1cc(-c2cc(-c3cc(NC(=O)Nc4ccc(C(F)(F)F)nc4)ccc3C)cn(C)c2=O)ccn1 [Example 3, 2-methoxy-N-(1-methyl-5-(2-methyl-5-(3-(6-(trifluoromethyl)pyridin-3-yl)ureido)phenyl)-2-oxo-1,2-dihydro-[3,4′-bipyridin]-2′-yl)acetamide]	100 to 500	< 100	100 to 500	–	–	–	–	–
CC(=O)Nc1cc(-c2cc(-c3cc(NC(=O)Nc4ccc(C(F)(F)F)nc4)ccc3C)cc(OCCO)n2)ccn1 [Example 5]	< 100	< 100	< 100	–	–	–	–	–
CC(=O)Nc1cc(-c2cc(-c3cc(NC(=O)Nc4ccc(C(F)(F)F)nc4)cnc3C)ccn2)ccn1 [Example 6]	< 100	< 100	500 to 1000	1000 to 10000	–	–	–	–
CC(=O)Nc1cc(-c2cc(-c3cc(NC(=O)Nc4ccc(C(F)(F)F)nc4)ccc3C)cc(=O)n2C)ccn1 [Example 7]	< 100	< 100	1000 to 10000	1000 to 10000	–	–	–	–
CC(=O)Nc1cc(-c2cc(-c3cc(NC(=O)Nc4ccc(C(F)(F)F)nc4)ccc3C)nn(C)c2=O)ccn1 [Example 8]	1000 to 10000	1000 to 10000	1000 to 10000	1000 to 10000	–	–	–	–
Cc1ccc(NC(=O)Nc2ccc(C(F)(F)F)nc2)cc1-c1cc(-c2ccnc(NC(=O)CN(C)C)c2)c(=O)n(C)c1 [Example 11]	100 to 500	100 to 500	500 to 1000	500 to 1000	–	–	–	–
CC(=O)Nc1cc(-c2cncc(-c3cc(NC(=O)Nc4ccc(C(F)(F)F)nc4)ccc3C)n2)ccn1 [Example 12]	< 100	< 100	100 to 500	100 to 500	–	–	–	–
COCC(=O)Nc1cc(-c2cncc(-c3cc(NC(=O)Nc4ccc(C(F)(F)F)nc4)ccc3C)n2)ccn1 [Example 13]	< 100	< 100	500 to 1000	500 to 1000	–	–	–	–
Cc1ccc(NC(=O)Nc2ccc(C(F)(F)F)nc2)cc1-c1cncc(-c2ccnc(NC(=O)CC#N)c2)n1 [Example 14]	< 100	< 100	1000 to 10000	1000 to 10000	–	–	–	–
Cc1ccc(NC(=O)Nc2ccc(C(F)(F)F)nc2)cc1-c1cncc(-c2cc(NC(=O)C3CC3)ncn2)c1 [Example 15]	< 100	< 100	500 to 1000	–	–	–	–	–
Cc1ccc(NC(=O)Nc2ccc(C(F)(F)F)nc2)cc1-c1cncc(-c2cc(N)ncn2)c1 [Example 16]	< 100	< 100	100 to 500	–	–	–	–	–
CNC(=O)c1cc(-c2cncc(-c3cc(NC(=O)Nc4ccc(C(F)(F)F)nc4)ccc3C)c2)ncn1 [Example 21]	< 100	< 100	100 to 500	–	–	–	–	–
Cc1ccc(NC(=O)Nc2ccc(C)c(-c3cc(OCCO)nc(N4CCOCC4)c3)c2)cn1 [Example 23, 1-(3-(2-(2-hydroxyethoxy)-6-morpholinopyridin-4-yl)-4-methylphenyl)-3-(6-methylpyridin-3-yl)urea]	100 to 500	< 100	< 100	–	–	–	–	–
Cc1ccc(NC(=O)Nc2cnc(C(F)(F)F)nc2)cc1-c1cc(OCCO)nc(N2CCOCC2)c1 [Example 24, 1-(3-(2-(2-hydroxyethoxy)-6-morpholinopyridin-4-yl)-4-methylphenyl)-3-(2-(trifluoromethyl)pyrimidin-5-yl)urea]	100 to 500	< 100	< 100	–	100 to 500	100 to 500	< 100	< 100
